# Patent US10583115B2, “Modulators of 14-3-3 functionality and uses thereof” (University of South Australia, priority 2014, dated 2020)
# Entries after “also recorded” stand apart in the source; their conditions may differ.
# Assays:
# A549 xenograft = A549 xenograft study; assay type: in vivo, BALB/c nude mice
# Protocol: All experimental procedures involving animals were conducted in accordance with the NHMRC Australian Code for the Care and Use of Animals for Scientific Purposes and with approval by the institutional animal ethics committee. BALB/c nude mice (Nu/Nu, female, 5-6 weeks old) were purchased from the Animal Resources Centre (Perth, Wash.) and maintained under pathogen-free conditions. A549 cells (5×106) in 100 μl PBS were injected subcutaneously into the flanks of the mice and the resulting tumour were measured using digital callipers. The tumour volume was calculated using the following formula: Volume=(larger diameter)×(small diameter)2/2. Once the tumours had reached 100 mm3, mice were divided into groups of 9 and each group administered either RB-012 in saline, FTY720 in saline or saline alone by intraperitoneal injection daily. Initially RB-12 and FTY720 were administered at 2 mg/kg for two days and then the dose was increased to 5 mg/kg for two weeks after which RB-012 was increased to 10 mg/kg but FTY720 maintained at 5 mg/kg. During this dosing regime tumours were monitored twice a week. Differences between samples were analysed using 2 way Anova and statistical significance was accepted at P<0.05.
# To assess the effect of RB-012 on human lung cancer growth in vivo, A549 cells were implanted subcutaneously on the flanks of Balb/C nude mice and tumours allowed to develop until they had reached a volume of 100 mm^3. RB-012 or saline was then administered daily to assess the effect on tumour growth. Initially, to reduce the cramping and encourage tolerance, 2 mg/kg RB-012 was administered for two days and then the dose was increased to 5 mg/kg daily for two weeks. Tumour volume was monitored twice a week and after two weeks of treatment mice administered RB-012 had tumours that were 20% smaller than mice receiving saline. […] The tumours on the RB-012 treated mice continued to grow more slowly and after the third week were 30% smaller than those of saline-treated mice (P<0.05). […] Therefore we were unable to increase FTY720 dosing to match RB-012.
# A549 cells [1] = experiment: A549 caspase-3 activation (NucView, flow cytometry); assay type: cell-based, human; settings: 48 hrs treatment
# Protocol: (§1) Jurkat cells were routinely set up in apoptosis assays at 2×10^5/ml in RPMI with 0.5% FBS. After treatment, cells were stained either with 200 nM TMRE, 5 μl/ml NucView™ (Biotium), or Annexin V-FITC (Roche) for 15 mins prior to analysis by flow cytometry. Forward- and side-scatter properties were used to exclude debris and a ‘viable’ gate corresponding to the intact, PI negative cell population was used for fluorescence analysis. For A549, cells at 90% confluency were treated with RB compounds for 48 hrs in DMEM with 0.5% FBS. After treatment, cells were released with trypsin and then stained with NucView™ prior to analysis by flow cytometry.
# A549 cells [2] = experiment: A549 cell viability by MTS assay; assay type: cell-based, human; settings: 48 hrs treatment
# Protocol: A549 cells (2500/well) were plated in 96 well trays in DMEM with 0.5% FBS and cultured at 37° C. with 5% CO2 overnight. The following day RB compounds were added and cells incubated for a further 48 hours prior to removal of the medium and replacement with MTS reagent diluted 1:6 in Dulbecco's PBS. The cells were incubated at 37° C. for a further 4 hours and the conversion of MTS to the coloured formazan compound determined by measurement of absorbance at 490 nm.
# WT dermal fibroblasts = experiment: Collagen remodeling assay and cell morphology, wild-type dermal fibroblasts; assay type: cell-based, mice; settings: 10 μM
# Protocol: (§2) Rat-tail tendon collagen was prepared by extraction with 0.5 M acetic acid to a concentration of ˜2 mg/ml. 8×10^4 cells/ml WT or 14-3-3ζ KO dermal fibroblasts (labeled with either eGFP or mCherry) were embedded in this three-dimensional collagen 1 matrix and incubated in DMEM with 10% FCS and 10 mM L-Glutamine at 37° C. and 5% CO2. Detached polymerized matrix (2.5 ml) was allowed to contract for 11 days. During contraction, matrices were either left untreated or incubated with 10 μM RB-11. Media was changed on day 1 and on day 6. To calculate contraction rates and obtain information on cell morphology matrices were imaged every second day in phase contrast on a Leica DMIL LED inverted microscope with either a 4×/NA0.10 HI PLAN or a 10×/NA0.22 HI PLAN I air objective.
# (§3) Measuring the mean diameter of three matrices and normalizing the diameter to day 1 determined contraction rates. Cell morphology was described by manually counting the number of cell protrusions/cell and the number of blebbing cells.
# To determine the circularity of cells images were processed in ImageJ (NIH) according to following routine. Images were converted to 8 Bit images and cropped to an image size equivalent to […]. Grey values were thresholded to select cells. The ‘analyze particles’ function was used to determine circularity of cells. Circularity values range from 0 to 1 with ‘0’ representing rod-shaped cells and ‘1’ representing perfectly circular cells.
# 10^6 14-3-3ζ-deficient or wild-type dermal fibroblasts were embedded in 2 mg/mL % rat tail collagen plugs made with or without 10 μM RB-11. The plugs were maintained in DMEM containing 10% foetal bovine serum in a humidified incubator at 37° C. Collagen plugs were photographed on days 2, 6 and 12 and the area of the image occupied by the collage plug measured.
# Jurkat cells = experiment: Jurkat apoptosis assays (TMRE, caspase 3, Annexin V, viability by flow cytometry); assay type: cell-based
# Protocol: as §1
# [3] = system: 14-3-3ζ KO dermal fibroblasts; experiment: Collagen remodeling assay and cell morphology, 14-3-3ζ KO dermal fibroblasts; assay type: cell-based, mice; settings: 10 μM
# Protocol: as §2, §3
# To determine the circularity of cells images were processed in ImageJ (NIH) according to following routine. […]
# 10^6 14-3-3ζ-deficient or wild-type dermal fibroblasts were embedded in 2 mg/mL % rat tail collagen plugs made with or without 10 μM RB-11. […] Collagen plugs were photographed on days 2, 6 and 12 and the area of the image occupied by the collage plug measured.
# [4] = system: incisional wounds of dorsal skin; experiment: Incisional wound healing model; assay type: in vivo, mice
# Protocol: A murine model of wound healing was utilised. In this model, 2×1 cm full thickness wounds were created in the dorsal skin. Wound healing was monitored using cohorts of mice humanely killed at 3, 5, 7 and 14 days post-wounding. Re-epithelialization was quantified histologically, by measuring the distance between epithelial margins sectioned in the transverse plane (Ansell D. M. et al. (2014) Wound Rep Reg 22: 281-287).
# Incisional wounding was carried out as we have previously detailed (Lees et al. (2013) The Journal of investigative dermatology 133, 1330-1339). Briefly, two full-thickness 1 cm incisions were created on the dorsal skin of 12 week old female mice and allowed to heal. RB-11 (10 μg per mouse), 4-hydroxytamoxifen (50 μg per mouse) or vehicle was applied in a total volume of 20 μl to the edge of each wound using a micropipette and allowed to absorb into the skin. At the appropriate time point (2, 5, 7, 14 and 21 days) following incisional wounding, mice were humanely killed and tissues harvested. From each mouse, one wound was completed excised and fixed in 4% formalin overnight at 4° C. Following fixation, the wound was carefully bisected at the middle across the wound, processed and embedded in paraffin for histological and immunofluorescence analysis. Wound widths were measured on scanned images of H&E stained sections using NDPView slide scanning and image quantification software. The remaining wound was bisected across the wound, snap-frozen and processed for gene expression analysis.
# 14-3-3ζ-deficient and wild-type mice were subjected to the incisional wounding protocol followed by treatment with vehicle or RB-11 (5× daily topical treatments of 11.5 μg). […] Slides were optically scanned using a Nanozoomer slide scanner (Hamamatsu, Japan) and the wound gap measured using Imagescope software (Leica Biosystems, Germany). Values were plotted on a box and whisker plot and statistical significant assessed using the Mann-Whitney test together with Dunnett's post hoc test.
# [5] = system: Jurkat cells over-expressing Bcl-2; experiment: Apoptosis assays in Jurkat cells over-expressing Bcl-2; assay type: cell-based; settings: 5 μM, 20 hours
# Protocol: Jurkat cells were obtained from the ATCC and A549 cell lines from ECACC. Jurkat cells were routinely cultured in RPMI with 10% FBS and A549 cells in DMEM with 10% FBS at 37° C. with 5% CO2 Jurkat Bcl-2 cells were generated by lentiviral transduction using a third generation lentiviral construct, as described previously (10) containing a Bcl-2α-IRES-IL2Rα encoding cassette. Transduced cells were FACS sorted for expression of IL2Rα using anti-CD25-PE (BD Pharmingen #555433) to enrich for Bcl-2 over-expressing cells and protein expression was further confirmed by immunoblotting with anti-Bcl-2 antibody (#610538; BD Transduction Laboratories, data not shown).
# as §1
# recombinant 14-3-3ζ [6] = biological target: T1, recombinant 14-3-3ζ (Homo sapiens, UniProt P63104); experiment: 14-3-3 phosphorylation assay (PKA, in vitro); assay type: biochemical
# T1 construct: 0.5 μg of purified recombinant 14-3-3
# T1 sequence (P63104 1-245): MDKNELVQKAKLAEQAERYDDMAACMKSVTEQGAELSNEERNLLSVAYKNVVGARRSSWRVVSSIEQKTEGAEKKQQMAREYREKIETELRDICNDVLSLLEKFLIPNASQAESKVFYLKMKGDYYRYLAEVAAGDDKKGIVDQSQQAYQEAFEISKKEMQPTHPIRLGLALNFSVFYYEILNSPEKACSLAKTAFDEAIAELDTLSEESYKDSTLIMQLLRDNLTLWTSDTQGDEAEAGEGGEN
# Protocol: (§4) Substrate 14-3-3 (0.5 μg of purified recombinant 14-3-3) was added to 15 μl reaction mixture comprising 0.2 U of the PKA catalytic subunit, in the presence or absence of compounds (delivered in 0.1% v/v ethanol) in PKA reaction buffer (10 mM Tris-HCl pH 7.4, 15 mM MgCl2, 3 mM DTT) containing 25 μM ATP and 0.3 μCi [^32P] 7-ATP). Reactions were incubated at 37° C. for 15 min. After incubation, reactions were separated on 12.5% SDS-PAGE, coomassie stained and 14-3-3 phosphorylation analysed by autoradiography.
# recombinant 14-3-3ζ [7] = experiment: 14-3-3 phosphorylation assay (PKA, in vitro); assay type: biochemical; settings: S58A versus Wt recombinant 14-3-3
# Protocol: as §4
# [8] = reported value; cited from earlier work
smiles,measurement,setting,value
CCCCCCCCc1ccc(CCC(N)(CO)CO)cc1 [FTY720],tumour size versus saline,A549 xenograft; 5 mg/kg daily i.p.,no reduction in tumour size; also recorded: did not elicit a reduction in tumour growth
same,adverse effects at 10 mg/kg,A549 xenograft; 10 mg/kg,"severe cramping with cardiac arrhythmia, with fatality in some cases"
same,tolerability at 10 mg/kg,"A549 xenograft; mouse, in vivo",not tolerated
CCCCCCCCc1ccc(CC[N+]2(C)CCCC2)cc1 [RB-011],caspase-3 activation,A549 cells [1],induce caspase activation
same,"cell viability / growth and survival (MTS), in words",A549 cells [2],inhibited
same,IC50,"A549 cells [2]; Homo sapiens, A549",7 µM
same,cell morphology by circularity analysis,WT dermal fibroblasts,rounded morphology
same,cell morphology in 3D collagen organotypic matrices (live-cell imaging),WT dermal fibroblasts,contracted morphology
same,collagen remodeling ability (contraction of collagen plug/matrix),WT dermal fibroblasts; listed as RB-11,unable to remodel the collagen plug; also recorded: significantly reduced collagen remodeling ability
same,"ED50 for apoptosis induction, in words",Jurkat cells,low micromolar range
same,Annexin V presentation,"Jurkat cells; 5 μM, 24 hours",Annexin V presentation
same,cell viability,"Jurkat cells; 5 μM, 24 hours",loss of viability
same,apoptosis as determined by caspase-3 activation,"Jurkat cells; 5 μM, within 5 hours",readily able to activate apoptosis
same,EC50,"Jurkat cells; Homo sapiens, Jurkat, 5 h, read-out: ED50 for apoptosis induction (initial activation of caspase-3)",2 µM
same,cell morphology by circularity analysis,[3],no further change in the morphology
same,ability to remodel a collagen plug,[3]; compared to wild type fibroblasts,reduced ability to remodel a collagen plug
same,rate of re-epithelialization,"[4]; WT mice, topical 10 μg [25 nmol] once daily for 7 days",increased the rate of re-epithelialization
same,collagen production around wound margins (SHG),"[4]; WT mice, topical 10 μg once daily for 7 days",elevated collagen production
same,wound healing (wound width),"[4]; wild-type mice, 5× daily topical treatments of 11.5 μg, day 5 following wounding",hastened wound healing
"CCCCCCCCCCCCCCCC[N+](C)(C)C.[Br-] [CTAB, cetyltrimethylammonium bromide]",cell death in Bcl-2 over-expressing cells,[5],protected from CTAB-induced cell death
same,concentration above which 14-3-3 phosphorylation plateaus,recombinant 14-3-3ζ [6]; dose-response study,above 25 μM
same,concentrations able to induce 14-3-3 phosphorylation,recombinant 14-3-3ζ [6]; dose-response study,low micromolar concentrations
same,concentration above which phosphorylation of 14-3-3 increased dramatically,recombinant 14-3-3ζ [6]; potentially non-specific protein denaturation,above 75 μM
same,rendering 14-3-3 phosphorylatable (phosphorylation of 14-3-3 by PKA in vitro),recombinant 14-3-3ζ [6]; recombinant 14-3-3 and PKA catalytic subunit,dose-dependent increase in 14-3-3 phosphorylation
same,phosphorylation site of 14-3-3ζ revealed,recombinant 14-3-3ζ [7],Ser58
same,caspase-3 activation,"Jurkat cells; 5 μM, 20 hours",induce caspase-3 activation
same,critical micelle concentration,[8],0.92 mM
